Experimental data: publication PMC10269604, “A 4-Hydroxybenzoic Acid-Mediated Signaling System Controls the Physiology and Virulence of Shigella sonnei” (Microbiology Spectrum, 2023)

Columns and labels:
UbiC (SSON_4219) = molecular target: T1, UbiC (SSON_4219) (Shigella sonnei, UniProt Q3YUU5); assay: in vitro conversion to 4-HBA; type: biochemical; conditions: product 4-hydroxybenzoic acid
T1 construct: intact ubiC gene in pET28a(+), His-tagged fusion, expressed in E. coli BL21(DE3), His-Tag column
T1 sequence (Q3YUU5 whole entry, the tested form may be a part): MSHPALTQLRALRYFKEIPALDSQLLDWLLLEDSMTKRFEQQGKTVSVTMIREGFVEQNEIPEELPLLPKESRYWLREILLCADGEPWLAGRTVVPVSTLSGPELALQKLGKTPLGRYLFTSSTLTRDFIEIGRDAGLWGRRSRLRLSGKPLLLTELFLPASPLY

AaeR (SSON_3385) = conditions: AaeR labelled with L014 Monolith protein labeling kit; 60% LED power, 40% MST power

SMILES | in vitro conversion to 4-HBA (UbiC (SSON_4219)) | Kd (AaeR (SSON_3385)) [µM]
C=C(O[C@@H]1C=C(C(=O)O)C=C[C@H]1O)C(=O)O [chorismic acid] | UbiC directly catalyzed the conversion of chorismic acid to 4-HBA | 
O=C(O)c1ccc(O)cc1 [4-hydroxybenzoic acid] |  | 23.1 ± 0.76
